PubChem BioAssay (NCI)
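Method: 48-hour compound exposure of cells in 96-well plates, five concentrations, linear interpolation of endpoints. TGI denotes the concentration required for complete inhibition of growth.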

How the values were obtained:
Assay in all cases: growth of human tumour cells (NCI), 48 h
SK-MEL-2 melanoma = test system: SK-MEL-2 melanoma
UO-31 renal = test system: UO-31 renal
HOP-62 NSCLC = test system: HOP-62 NSCLC
NCI-H23 lung = test system: NCI-H23 lung
IGROV1 ovarian = test system: IGROV1 ovarian
SF-268 CNS = test system: SF-268 CNS
SNB-19 CNS = test system: SNB-19 CNS
U251 CNS = test system: U251 CNS
SK-MEL-28 melanoma = test system: SK-MEL-28 melanoma
SF-295 CNS = test system: SF-295 CNS
MOLT-4 leukemia = test system: MOLT-4 leukemia
NCI-H522 lung = test system: NCI-H522 lung
NCI-H460 lung = test system: NCI-H460 lung
UACC-257 melanoma = test system: UACC-257 melanoma
NCI-H226 lung = test system: NCI-H226 lung
NCI/ADR-RES ovarian = test system: NCI/ADR-RES ovarian
RPMI-8226 leukemia = test system: RPMI-8226 leukemia
ACHN renal = test system: ACHN renal
DU-145 prostate = test system: DU-145 prostate
TK-10 renal = test system: TK-10 renal

Compound	TGI (SK-MEL-2 melanoma) [µM]	TGI (UO-31 renal) [µM]	TGI (HOP-62 NSCLC) [µM]	TGI (NCI-H23 lung) [µM]	TGI (IGROV1 ovarian) [µM]	TGI (SF-268 CNS) [µM]	TGI (SNB-19 CNS) [µM]	TGI (U251 CNS) [µM]	TGI (SK-MEL-28 melanoma) [µM]	TGI (SF-295 CNS) [µM]	TGI (MOLT-4 leukemia) [µM]	TGI (NCI-H522 lung) [µM]	TGI (NCI-H460 lung) [µM]	TGI (UACC-257 melanoma) [µM]	TGI (NCI-H226 lung) [µM]	TGI (NCI/ADR-RES ovarian) [µM]	TGI (RPMI-8226 leukemia) [µM]	TGI (ACHN renal) [µM]	TGI (DU-145 prostate) [µM]	TGI (TK-10 renal) [µM]
N/C(=N\N=C\c1ccc2c(c1)OCCO2)NO	70.4	> 53	93.2	> 100	> 100	> 49.1	> 32.6	> 100	> 100	57.1	> 100	42.1	> 100	> 61.2	27.5	> 55.1	> 64.4	–	–	–
Cc1ccc(S(=O)(=O)N2CCCSCC2)cc1	–	> 100	–	> 100	–	> 100	> 100	> 100	> 100	> 100	> 100	> 100	> 100	> 100	> 100	> 100	–	> 100	> 100	> 100
CCCC(=O)Nc1cc(/C=C/C(=O)N2CC(CCl)c3c2cc(O)c2[nH]cc(C)c32)n(C)c1 (stereo unspecified)	< 2.5e-05	–	< 2.5e-05	< 2.5e-05	> 0.25	< 2.5e-05	0.00608	0.0449	> 0.25	2.98e-05	0.0121	< 2.5e-05	–	–	4e-05	0.00372	0.00154	< 2.5e-05	0.000817	< 2.5e-05
CC(=O)C1CC[C@@H]2[C@H](CC[C@]3(C)[C@@H](O)CC[C@@H]23)[C@H]1C(=O)O (stereo partly specified)	> 100	> 100	> 100	> 100	> 100	> 100	> 100	> 100	> 100	> 100	> 100	> 100	> 100	> 100	–	> 100	> 100	–	–	> 100
O=C1c2ccccc2C(=O)N1CC(O)COc1cccc2ccccc12 (stereo unspecified)	–	> 100	> 100	–	> 100	> 100	> 100	> 100	> 100	> 100	> 100	> 100	> 100	> 100	–	> 100	> 100	> 100	> 100	> 100
Oc1ccc(-c2nc3ccc(Cl)cc3s2)cc1	34	27.8	–	36.5	32.4	33.8	40.4	46.9	–	34.1	> 100	31.7	36.1	34.4	41.6	57.1	47.3	> 100	31.1	34.7
COc1cc(C(O)(CC#N)c2cc3c(cc2Br)OCO3)cc(OC)c1OC (stereo unspecified)	> 100	> 100	35.9	> 100	> 100	> 100	76.1	> 100	> 100	> 100	> 100	–	50.8	> 100	83.3	> 100	> 100	> 100	> 100	> 100
CC1(C)OCC=CCO1	> 100	> 100	> 100	> 100	> 100	> 100	> 100	> 100	> 100	> 100	> 100	> 100	> 100	> 100	> 100	> 100	> 100	> 100	> 100	> 100
